Where two headings read alike, the source gives them in different places.
How the values were obtained:
[1] = TEACH: steady-state plasma pharmacokinetics of atazanavir and etravirine (LC-MS/MS, noncompartmental analysis); assay type: in vivo, HIV-1-infected patients
Description: Blood samples for analyses of atazanavir and ritonavir plasma concentrations were collected over 24 hours (before dose and 1, 2, 3, 4, 6, 9, 12, and 24 hours after dose) on the last day of the two-week pretreatment period and after Week 2 of the treatment period. Blood samples for evaluation of etravirine plasma concentrations were collected after Week 2. Atazanavir, ritonavir, and etravirine were assayed using validated liquid chromatography-mass spectrometry/mass spectrometry, with a lower limit of quantification of 250 ng/mL, 5.00 ng/mL, and 2.00 ng/mL, respectively.
Pharmacokinetic parameters were obtained using noncompartmental analysis (WinNonlin Professional version 4.1, Pharsight, Mountain View, CA, USA) and included C min, maximum plasma concentration (C max), and AUC12 h for etravirine and AUC24 h for atazanavir and ritonavir.
The least square means (LSM) of C min, C max, and AUC24 for atazanavir and ritonavir were estimated with a linear mixed-effects model, including treatment as fixed effect and subject as a random effect (SAS version 9.3, SAS Institute, Cary, NC, USA). A 90% confidence interval (CI) was constructed around the difference between the LSM of test and reference. The LSM differences and 90% CIs were retransformed to the original scale. No effect (prespecified) was declared if the 90% CIs of the LSM ratio were within the limits of 80.00–125.00%. The pharmacokinetics of etravirine was compared with historic data from DUET [21].

[2] = healthy volunteers; etravirine 800 mg bid (formulation TF035) and ATV/r 300/100 mg qd; cited from earlier work
HIV-1 = details: for median etravirine FC (range): virologic failures (n = 12)
Description: The main inclusion criteria were HIV-1-infected adults who had previously received ≥1 antiretroviral regimen but failed ≤1 PI-based regimen and were currently on a stable but failing antiretroviral regimen (viral load [VL] > 500 copies/mL at screening) (Cobas Amplicor HIV-1 VL assay, Roche Molecular Systems, Inc., Branchburg, NJ, USA; assay performed by Covance Central Laboratory Services). Patients were required to be sensitive to atazanavir, etravirine, and the selected NRTIs (with the exception of emtricitabine or lamivudine) based on resistance testing at screening using the PhenoSense GT assay (Monogram Biosciences, South San Francisco, CA, USA). […] The clinical cut-offs used for etravirine and boosted atazanavir were 2.9–10.0 and 5.2, respectively.
During the treatment session, plasma VL was determined at baseline, Weeks 2 and 4, and monthly until Week 48. Virologic failures were classified as patients who were still in the study at Week 12 and (i) who never achieved two consecutive VL values < 50 copies/mL (nonresponders) or (ii) first achieved two consecutive VL values < 50 copies/mL followed by two consecutive VL values > 50 copies/mL or discontinued for any reason with VL > 50 copies/mL (rebounders). Changes in viral phenotype and genotype in virologic failures were determined using the PhenoSense GT assay.

[3] = TEACH pharmacokinetic substudy: addition of TDF for seven days to atazanavir/ritonavir and etravirine; details: adding TDF to ATV/r and etravirine, both ATV/r dose groups combined (7 patients), compared with Day −1
Description: The trial consisted of a ≤4-week screening period, a pretreatment period of two weeks (atazanavir/ritonavir 300/100 mg qd and two NRTIs), and a 48-week treatment period. Patients were randomized 1 : 1, by a computer-generated interactive web response system, to receive either atazanavir/ritonavir 300/100 mg qd or 400/100 mg qd (Figure 1). […] Atazanavir/ritonavir 400/100 mg qd was given to the other group to offset the potential reduction in atazanavir exposure, while at the same time investigating if the higher dose of atazanavir might further affect etravirine exposure. At baseline, in both groups, one of the two NRTIs was switched to etravirine 200 mg bid. NRTIs were selected by the investigators based on resistance testing; however, tenofovir disoproxil fumarate (TDF) was not permitted. Patients who were intolerant to their NRTI could switch to another sensitive NRTI, excluding TDF. Tenofovir decreases both atazanavir and etravirine exposure.
Seven patients participated in the pharmacokinetic substudy, 3 patients randomized to atazanavir/ritonavir 300/100 mg qd and 4 patients randomized to atazanavir/ritonavir 400/100 mg qd. Because of the small sample size, results of the two groups were combined.

[4] = parameters: method as in PMID 20881958; details: Pooled DUET: ETR 200 mg bid + DRV/r 600/100 mg bid, Week 4 (reference, n = 25), cited from earlier work
[5] = Test 1 (with ATV/r 300/100 mg qd, Week 2) versus pooled DUET reference (ETR + DRV/r, Week 4)
[6] = Test 2 (with ATV/r 400/100 mg qd, Week 2) versus pooled DUET reference (ETR + DRV/r, Week 4)
[7] = with ATV/r 300/100 mg qd, compared with historic control data (DUET)
[8] = with ATV/r 400/100 mg qd, compared with historic data (DUET)

## Cc1cc(C#N)cc(C)c1Oc1nc(Nc2ccc(C#N)cc2)nc(N)c1Br [etravirine]
[1]; [5]
  etravirine AUC0–12 h LSM ratio (90% CI) of test versus reference: 1.24 (0.88–1.76)
  etravirine C max LSM ratio (90% CI) of test versus reference: 1.06 (0.78–1.46)
  etravirine C min LSM ratio (90% CI) of test versus reference: 1.07 (0.60–1.90)
[1]; [6]
  etravirine AUC0–12 h LSM ratio (90% CI) of test versus reference: 0.84 (0.60–1.18)
  etravirine C max LSM ratio (90% CI) of test versus reference: 0.87 (0.65–1.18)
  etravirine C min LSM ratio (90% CI) of test versus reference: 0.83 (0.54–1.29)
[1]; [7]
  increase in etravirine AUC12 h: 24%
  increase in etravirine C max: 6%
  increase in etravirine C min: 7%
[1]; [8]
  decrease in etravirine AUC12 h: 16%
  decrease in etravirine C max: 13%
  decrease in etravirine C min: 17%
[2]
  increase in etravirine AUC24 h: 1.3 fold
  increase in etravirine C min: 1.3 fold
HIV-1; at baseline
  median etravirine FC (range): 0.73 (0.4–1.7)
HIV-1; at endpoint
  median etravirine FC (range): 2.99 (0.6–40.0)
[3]
  decrease in etravirine AUC12 h: 15%
  decrease in etravirine C max: 19%
  etravirine AUC12 h LSM ratio [90% CIs]: 0.85 [0.79–0.92]
  etravirine C max LSM ratio [90% CIs]: 0.81 [0.72–0.91]
[4]; mean ± SD
  etravirine AUC0–12 h: 7964 ± 11180 ng·h/mL
  etravirine C 0 h: 545.0 ± 818.6 ng/mL
  etravirine C max: 879.6 ± 1030 ng/mL
  etravirine C min: 452.6 ± 806.0 ng/mL
[4]; median (range)
  etravirine t max: 3.95 (0.08–6.08) h

## COC(=O)N[C@H](C(=O)N[C@@H](Cc1ccccc1)[C@@H](O)CN(Cc1ccc(-c2ccccn2)cc1)NC(=O)[C@@H](NC(=O)OC)C(C)(C)C)C(C)(C)C [atazanavir]
[1]; human, in vivo, Test 1: ATV/r 300/100 mg qd + one NRTI + ETR 200 mg bid, Week 2, median (range), read-out: atazanavir t max
  Tmax: 3 h
HIV-1; virologic failures, baseline to endpoint
  change in atazanavir FC: no increase
